Reference: PubChem BioAssay (NCI)
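Assay format: 96-well plates, 48-hour exposure. Here, GI50 denotes the concentration required for 50% inhibition of growth. TGI denotes the concentration required for complete inhibition of growth.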

Key:
Assay in all cases: growth of human tumour cells (NCI), 48 h
[1] = test system: A549 NSCLC
[2] = test system: HOP-62 NSCLC
[3] = test system: LOX IMVI melanoma
[4] = test system: MDA-N
[5] = test system: NCI/ADR-RES ovarian
[6] = test system: OVCAR-4 ovarian
[7] = test system: SF-295 CNS
[8] = test system: SN12C renal
[9] = test system: SNB-75 CNS
[10] = test system: M14 melanoma

Structure (SMILES)	TGI [1] [µM]	TGI [2] [µM]	TGI [3] [µM]	TGI [4] [µM]	TGI [5] [µM]	TGI [6] [µM]	TGI [7] [µM]	TGI [8] [µM]	TGI [9] [µM]	TGI [10] [µM]	GI50 [1] [µM]	GI50 [2] [µM]	GI50 [3] [µM]	GI50 [10] [µM]	GI50 [5] [µM]	GI50 [6] [µM]	GI50 [7] [µM]	GI50 [8] [µM]	GI50 [9] [µM]
CC1(C)CCCCCCCCCC(C)(CCCCCCCCCCCCO)C1=O (centres undefined)	29.9	47.5	32.3	33.7	32.6	32.7	30.4	31.4	29.7	–	–	–	–	–	–	–	–	–	–
CN1Cc2c(nc(-c3ccc(Br)cc3)c[n+]2[O-])N(C)C1	> 100	> 100	–	–	–	> 100	> 100	> 100	> 100	> 100	–	–	–	–	–	–	–	–	–
COc1cc(OC)cc(-c2n/c(=C\c3c(O)[nH]c4ccc(Cl)cc34)cc3c2=Nc2ccccc2-3)c1	11.1	3.99	4.34	–	10.8	3.77	6.11	17.2	39.6	13.7	3.21	1.99	1.92	4.01	3.03	1.76	2.32	3.73	16.3
C=CC(C)(C)c1cc([C@@H]2COc3cc(O)ccc3C2=O)c(O)c(O)c1OC	> 100	–	66.8	51	64.3	34.2	> 100	37.6	56.6	46.5	–	–	–	–	–	–	–	–	–
Cc1nn(C)c2nc3ccc(Cl)cc3c(-c3ccccc3)c12	> 100	> 100	–	> 100	> 100	> 100	> 100	> 100	> 100	> 100	–	–	–	–	–	–	–	–	–
CC(C)(C)c1cc(C(=O)/C=C/c2ccn[nH]2)cc(C(C)(C)C)c1O	9.8	9.52	3.48	–	16.1	18	28.1	3.6	9.61	3.51	–	–	–	–	–	–	–	–	–
O/N=C1/C2CC3CC1(c1ccccc1)CC(/C3=N/O)/C2=N\O (centres undefined)	> 100	> 100	> 100	> 100	–	> 100	> 100	> 100	> 100	> 100	–	–	–	–	–	–	–	–	–
Cc1c(C#N)c2nnn(-c3ccccc3)c(=O)n2c1-c1ccccc1	> 45.8	> 100	> 100	–	14.6	> 100	8.53	> 56.8	18.2	> 35.6	–	–	–	–	–	–	–	–	–
COc1cc(OC)cc(-n2c(N)c(-c3nc4ccccc4n3C)c3ccc([N+](=O)[O-])cc3c2=O)c1	> 100	–	> 100	> 100	> 100	88.4	–	> 100	63.9	–	–	–	–	–	–	–	–	–	–
C/C=C/[C@H]1O[C@@](O)([C@@H](C)[C@H](O)[C@H](C)[C@H]2OC(=O)/C(OC)=C/C(C)=C/[C@@H](C)[C@@H](O)[C@@H](CC)[C@@H](O)[C@H](C)C/C(C)=C/C=C/[C@@H]2OC)C[C@H](OC2CC(O)C(OC(N)=O)C(C)O2)[C@@H]1C (some centres undefined)	17.7	1.11	0.0614	–	26.8	20.8	0.893	23.5	21.9	0.0387	–	–	–	–	–	–	–	–	–
COC(=O)C1=C(C)N(NC(=O)c2ccccc2)C2(O)CCCC(=O)C12C (centres undefined)	> 100	–	> 100	–	–	> 100	> 100	> 100	> 100	> 100	–	–	–	–	–	–	–	–	–
O=C1c2ccccc2-c2nc(-c3ccccc3)cc3c2c1nc1ccccc13	52.9	47.2	10	3.67	47.1	> 100	27.6	32.8	–	18.3	–	–	–	–	–	–	–	–	–
O=c1[nH]c2cc3cccnc3c(Cl)c2nc1CBr	38.8	29.4	31.1	34.9	53.3	34.2	54.1	27	–	27.8	–	–	–	–	–	–	–	–	–
COc1cc2c(cc1C)NC(=O)/C2=C\c1ccncc1	66.5	22.8	–	–	10.7	> 100	19.1	20.9	33.7	12.9	–	–	–	–	–	–	–	–	–
Cc1ccc(S(=O)(=O)c2ccc([N+](=O)[O-])o2)cc1	28.1	38.1	2.91	–	5.36	> 22	43.9	35.5	11.8	3.82	–	–	–	–	–	–	–	–	–
CN(/N=N/c1nc[nH]c1C(N)=O)C1CCCCC1	> 100	> 100	> 100	–	–	> 100	> 100	> 100	> 100	> 100	–	–	–	–	–	–	–	–	–
CN(C)Cc1cc(C(=O)/C=C/c2cccc(Cl)c2)cc(CN(C)C)c1O	28.8	13.7	10.9	10.3	> 100	–	27	11.4	6.43	15.5	–	–	–	–	–	–	–	–	–
